# Measurements: US8012980B2, “Isoquinolinone derivatives” (AstraZeneca AB, priority 2008, dated 2011)
# Counter-ions that a name gives are not always drawn.
# Target: T1, human active recombinant p38 (p38α) (Homo sapiens, UniProt Q16539)
# T1 construct: 6His
# Test: p38 Alpha Enzyme Assay (AlphaScreen, biotinylated-ATF2 substrate)
# Type: biochemical
# Conditions: means of replicate determinations; pre-incubated for 4 hours at 37° C.; SD of assay between 0.2 and 0.3 log units
# Description: The ability of the compounds of formula (I) to inhibit p38 kinase may be determined using the following biological assay:
# Enzyme assays were performed in polypropylene 96 well plates. The following solutions were added to each well; 10 μL of compound dilutions in assay buffer (20 mM HEPES pH 7.4, containing 20 mM magnesium acetate, 0.005% (w/v) Tween-20, 10 mM DTT) containing 1% (v/v) DMSO or assay buffer containing 1% (v/v) DMSO alone, 70 μL of assay buffer containing 36 nM substrate (biotinylated-ATF2) and 10 μL of an appropriate dilution of human active recombinant p38-6H is tagged. Depending on batch of p38, an appropriate dilution was typically a 5 nM solution to give a final enzyme concentration of 0.5 nM. At this stage, background control wells also received 50 μL of AlphaScreen quench buffer (10 mM HEPES pH 7.4 containing 100 mM EDTA, 0.2% (w/v) bovine serum albumin). The plate was covered, pre-incubated for 4 hours at 37° C. and the enzyme reaction initiated by addition of 10 μL 1 mM ATP. After incubation for a further 45 minutes at 37° C., the reaction was stopped by addition of 50 μL quench reagent and 50 μL of the quenched reaction mixture transferred to an opaque, white 96-well plate. Detection reagent, 25 μL of 10 mM HEPES pH 7.4 containing 100 mM EDTA, 0.2% (w/v) bovine serum albumin, 0.3 nM anti phosphoATF2 antibody and 25 μg/mL of AlphaScreen protein A acceptor and donor beads' (PerkinElmer Inc.), was added to all wells in a darkened room, the plate sealed and left in the dark for at least 5 hours before AlphaScreen readings were taken using a Perkin Elmer EnVision reader. Total, uninhibited activity was determined from assays performed in each assay plate. The mean control in the absence of p38 activity was subtracted from each well. Data were expressed as percent inhibition of total activity using equation 1. Percent Inhibition=100*(1−Test/Control) Eq.1 Where . . . Test=p38 kinase activity in the presence of compound Control=p38 kinase activity in the absence of compound.
# pIC50 is defined as the logarithm of the reciprocal of the concentration of compound required for 50% reduction in total p38 kinase activity.
# The standard deviation of the p38 enzyme inhibition assay is between 0.2 and 0.3 log units.
# T1 sequence (Q16539 whole entry): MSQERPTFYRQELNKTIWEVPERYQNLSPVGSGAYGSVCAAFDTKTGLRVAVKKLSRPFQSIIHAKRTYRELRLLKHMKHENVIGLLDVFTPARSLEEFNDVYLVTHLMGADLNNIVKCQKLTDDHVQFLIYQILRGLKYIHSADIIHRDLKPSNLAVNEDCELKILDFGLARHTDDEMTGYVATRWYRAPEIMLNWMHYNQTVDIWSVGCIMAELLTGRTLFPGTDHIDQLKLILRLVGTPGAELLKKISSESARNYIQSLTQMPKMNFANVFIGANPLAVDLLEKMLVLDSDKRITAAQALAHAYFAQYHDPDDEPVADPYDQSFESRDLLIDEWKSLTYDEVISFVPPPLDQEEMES
row,p38α inhibition Mean pIC50,SMILES
1,8.8,"Cc1c(F)cc(C(=O)NC2CC2)cc1-c1ccc2c(=O)n(CC(C)(C)CO)cc(CN3CCC[C@H](N)C3)c2c1 [Example 25, 3-[4-{[(3S)-3-Aminopiperidin-1-yl]methyl}-2-(3-hydroxy-2,2-dimethylpropyl)-1-oxo-1,2-dihydroisoquinolin-6-yl]-N-cyclopropyl-5-fluoro-4-methylbenzamide]"

# Same assay, conditions: means of replicate determinations; pre-incubated for 4 hours at 37° C.; SD of assay between 0.2 and 0.3 log units; read-out: p38α inhibition Mean pIC50 (converted)
row,IC50,SMILES
1,0.158 nM,"Cc1c(F)cc(C(=O)NC2CC2)cc1-c1ccc2c(=O)n(CC(C)(C)CO)cc(CN3CCNC[C@@H]3CO)c2c1 [Example 22, N-Cyclopropyl-3-fluoro-5-[2-(3-hydroxy-2,2-dimethylpropyl)-4-{[(2R)-2-(hydroxymethyl)piperazin-1-yl]methyl}-1-oxo-1,2-dihydroisoquinolin-6-yl]-4-methylbenzamide]"
2,0.316 nM,"Cc1c(F)cc(C(=O)NC2CC2)cc1-c1ccc2c(=O)n(CC(C)(C)CO)cc(CN3CCCNCC3)c2c1 [Example 23, N-Cyclopropyl-3-[4-(1,4-diazepan-1-ylmethyl)-2-(3-hydroxy-2,2-dimethylpropyl)-1-oxo-1,2-dihydroisoquinolin-6-yl]-5-fluoro-4-methylbenzamide]"
3,0.631 nM,"Cc1c(F)cc(C(=O)NC2CC2)cc1-c1ccc2c(=O)n(CC(C)(C)CO)cc(CN3CCN(C)CC3)c2c1 [Example 24, N-Cyclopropyl-3-fluoro-5-{2-(3-hydroxy-2,2-dimethylpropyl)-4-[(4-methylpiperazin-1-yl)methyl]-1-oxo-1,2-dihydroisoquinolin-6-yl}-4-methylbenzamide]"
4,0.316 nM,"Cc1c(F)cc(C(=O)NC2CC2)cc1-c1ccc2c(=O)n(CC3(CO)CCC3)cc(CN3CCNCC3)c2c1 [Example 27, N-Cyclopropyl-3-fluoro-5-[2-{[1-(hydroxymethyl)cyclobutyl]methyl}-1-oxo-4-(piperazin-1-ylmethyl)-1,2-dihydroisoquinolin-6-yl]-4-methylbenzamide]"
5,0.794 nM,"Cc1c(F)cc(C(=O)NC2CC2)cc1-c1ccc2c(=O)n(CC(C)(C)CO)cc(CN3CCNC[C@@H]3C)c2c1 [Example 28, N-Cyclopropyl-3-fluoro-5-[2-(3-hydroxy-2,2-dimethylpropyl)-4-{[(2S)-2-methylpiperazin-1-yl]methyl}-1-oxo-1,2-dihydroisoquinolin-6-yl]-4-methylbenzamide]"
6,0.794 nM,"Cc1c(F)cc(C(=O)NC2CC2)cc1-c1ccc2c(=O)n(CC(C)(C)CO)cc(CN3CCN[C@@H](C)C3)c2c1 [Example 29, N-Cyclopropyl-3-fluoro-5-[2-(3-hydroxy-2,2-dimethylpropyl)-4-{[(3S)-3-methylpiperazin-1-yl]methyl}-1-oxo-1,2-dihydroisoquinolin-6-yl]-4-methylbenzamide hydrochloride]"
7,0.126 nM,"Cc1c(F)cc(C(=O)NC2CC2)cc1-c1ccc2c(=O)n(CC(C)(C)CO)cc(CN3CCC[C@@H](N)C3)c2c1 [Example 30, 3-[4-{[(3R)-3-Aminopiperidin-1-yl]methyl}-2-(3-hydroxy-2,2-dimethylpropyl)-1-oxo-1,2-dihydroisoquinolin-6-yl]-N-cyclopropyl-5-fluoro-4-methylbenzamide]"
8,0.794 nM,"Cc1c(F)cc(C(=O)NC2CC2)cc1-c1ccc2c(=O)n(CC(C)(C)CO)cc(CN3CCC(C)(N)CC3)c2c1 [Example 31, 3-{4-[(4-Amino-4-methylpiperidin-1-yl)methyl]-2-(3-hydroxy-2,2-dimethylpropyl)-1-oxo-1,2-dihydroisoquinolin-6-yl}-N-cyclopropyl-5-fluoro-4-methylbenzamide]"
9,0.794 nM,"Cc1c(F)cc(C(=O)NC2CC2)cc1-c1ccc2c(=O)n(CC(C)(C)CO)cc(CN3CCN(CCCO)CC3)c2c1 [Example 32, N-Cyclopropyl-3-fluoro-5-[2-(3-hydroxy-2,2-dimethylpropyl)-4-{[4-(3-hydroxypropyl)piperazin-1-yl]methyl}-1-oxo-1,2-dihydroisoquinolin-6-yl]-4-methylbenzamide]"
